Assay type in all cases: cell-based
The target in one test is T1, human TLR7 (Homo sapiens, UniProt Q9NYK1).
T1 construct: host or cells: HEK-Blue cells
T1 sequence (Q9NYK1 27-1049): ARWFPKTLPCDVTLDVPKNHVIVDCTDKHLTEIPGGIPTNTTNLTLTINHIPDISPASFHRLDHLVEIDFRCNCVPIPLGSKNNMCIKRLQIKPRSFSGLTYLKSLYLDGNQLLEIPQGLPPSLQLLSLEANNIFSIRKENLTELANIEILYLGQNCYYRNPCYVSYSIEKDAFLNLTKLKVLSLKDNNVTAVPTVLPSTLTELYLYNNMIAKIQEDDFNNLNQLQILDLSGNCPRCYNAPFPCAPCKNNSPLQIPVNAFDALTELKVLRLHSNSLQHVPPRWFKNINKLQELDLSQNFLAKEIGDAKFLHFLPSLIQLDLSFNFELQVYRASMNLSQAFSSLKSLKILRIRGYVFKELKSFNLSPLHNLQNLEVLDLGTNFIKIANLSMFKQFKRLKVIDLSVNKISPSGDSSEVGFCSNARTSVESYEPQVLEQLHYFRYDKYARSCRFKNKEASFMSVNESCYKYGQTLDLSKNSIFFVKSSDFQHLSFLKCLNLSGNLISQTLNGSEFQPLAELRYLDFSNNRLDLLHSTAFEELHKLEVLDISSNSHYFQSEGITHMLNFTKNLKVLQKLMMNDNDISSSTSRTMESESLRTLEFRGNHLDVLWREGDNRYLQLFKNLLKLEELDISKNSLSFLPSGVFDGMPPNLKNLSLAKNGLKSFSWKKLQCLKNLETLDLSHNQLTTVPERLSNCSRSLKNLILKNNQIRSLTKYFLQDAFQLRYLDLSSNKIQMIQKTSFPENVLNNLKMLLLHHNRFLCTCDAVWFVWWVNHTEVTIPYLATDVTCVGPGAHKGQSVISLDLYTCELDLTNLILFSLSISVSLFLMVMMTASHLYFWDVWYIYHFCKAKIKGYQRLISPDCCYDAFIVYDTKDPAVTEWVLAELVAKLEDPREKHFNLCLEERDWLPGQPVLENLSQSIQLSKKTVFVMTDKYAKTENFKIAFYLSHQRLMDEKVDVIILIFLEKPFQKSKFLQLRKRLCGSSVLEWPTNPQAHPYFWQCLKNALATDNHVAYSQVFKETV
Nature of the test: TLR7 inhibition reporter assay (HEK-Blue cells, SEAP reporter, gardiquimod stimulation). The note with it: HEK-Blue cells overexpressing human TLR7, SEAP reporter, gardiquimod 7.5 μM. As to the method:
(§1) TLR7/8/9 Inhibition Reporter Assays
(§2) HEK-Blue™-cells (Invivogen) overexpressing human TLR7, TLR8 or TLR9 receptors were used for screening inhibitors of these receptors using an inducible SEAP (secreted embryonic alkaline phosphatase) reporter gene under the control of the IFN-β minimal promoter fused to five NF-κB and AP-1-binding sites. Briefly, cells are seeded into Greiner 384 well plates (15000 cells per well for TLR7, 20,000 for TLR8 and 25,000 for TLR9) and then treated with test compounds in DMSO to yield a final dose response concentration range of 0.05 nM-50 μM. After a 30 minute compound pre-treatment al room temperature, the cells are then stimulated with a TLR7 ligand (gardiquimod at a final concentration of 7.5 μM), TLR8 ligand (R848 at a final concentration of 15.9 μM) or TLR9 ligand (ODN2006 at a final concentration of 5 nM) to activate NF-κB and AP-1 which induce the production of SEAP. After a 22 hour incubation at 37° C., 5% CO2, SEAP levels are determined with the addition of HEK-Blue™ Detection reagent (Invivogen), a cell culture medium that allows for detection of SEAP, according to manufacturer's specifications. The percent inhibition is determined as the % reduction in the HEK-Blue signal present in wells treated with agonist plus DMSO alone compared to wells treated with a known inhibitor.

The next test concerns the target T2, human TLR8 (Homo sapiens, UniProt Q9NR97).
T2 construct: host or cells: HEK-Blue cells
T2 sequence (Q9NR97 27-1041): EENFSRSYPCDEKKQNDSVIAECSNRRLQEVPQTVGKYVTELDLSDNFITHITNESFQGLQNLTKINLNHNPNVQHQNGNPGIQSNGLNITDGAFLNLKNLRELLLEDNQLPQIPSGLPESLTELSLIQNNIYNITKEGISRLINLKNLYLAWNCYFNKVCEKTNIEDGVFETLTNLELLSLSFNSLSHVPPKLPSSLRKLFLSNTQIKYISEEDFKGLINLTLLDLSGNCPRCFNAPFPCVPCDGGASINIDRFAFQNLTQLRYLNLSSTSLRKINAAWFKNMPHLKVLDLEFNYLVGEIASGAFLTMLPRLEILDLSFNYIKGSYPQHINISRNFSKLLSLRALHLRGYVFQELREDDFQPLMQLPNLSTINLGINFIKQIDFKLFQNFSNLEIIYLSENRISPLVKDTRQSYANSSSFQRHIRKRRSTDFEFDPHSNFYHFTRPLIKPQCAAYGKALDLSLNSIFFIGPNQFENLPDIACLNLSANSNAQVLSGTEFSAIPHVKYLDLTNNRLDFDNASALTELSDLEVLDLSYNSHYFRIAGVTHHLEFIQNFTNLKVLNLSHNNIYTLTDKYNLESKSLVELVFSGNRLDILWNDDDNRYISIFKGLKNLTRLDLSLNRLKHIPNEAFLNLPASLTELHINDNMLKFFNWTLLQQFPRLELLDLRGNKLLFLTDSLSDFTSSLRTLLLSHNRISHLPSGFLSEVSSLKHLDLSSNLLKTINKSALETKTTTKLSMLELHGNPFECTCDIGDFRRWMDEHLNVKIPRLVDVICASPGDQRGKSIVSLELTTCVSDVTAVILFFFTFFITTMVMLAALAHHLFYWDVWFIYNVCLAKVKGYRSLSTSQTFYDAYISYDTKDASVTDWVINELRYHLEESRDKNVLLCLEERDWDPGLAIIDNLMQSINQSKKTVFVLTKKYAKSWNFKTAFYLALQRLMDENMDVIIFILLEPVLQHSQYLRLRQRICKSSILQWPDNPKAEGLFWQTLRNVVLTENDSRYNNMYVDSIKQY
The test is described as follows: TLR8 inhibition reporter assay (HEK-Blue cells, SEAP reporter, R848 stimulation). The note with it: HEK-Blue cells overexpressing human TLR8, SEAP reporter, R848 15.9 μM. As to the method:
as §1, §2

Another test concerns the target T3, human TLR9 (Homo sapiens, UniProt Q9NR96).
T3 construct: host or cells: HEK-Blue cells
T3 sequence (Q9NR96 26-1032): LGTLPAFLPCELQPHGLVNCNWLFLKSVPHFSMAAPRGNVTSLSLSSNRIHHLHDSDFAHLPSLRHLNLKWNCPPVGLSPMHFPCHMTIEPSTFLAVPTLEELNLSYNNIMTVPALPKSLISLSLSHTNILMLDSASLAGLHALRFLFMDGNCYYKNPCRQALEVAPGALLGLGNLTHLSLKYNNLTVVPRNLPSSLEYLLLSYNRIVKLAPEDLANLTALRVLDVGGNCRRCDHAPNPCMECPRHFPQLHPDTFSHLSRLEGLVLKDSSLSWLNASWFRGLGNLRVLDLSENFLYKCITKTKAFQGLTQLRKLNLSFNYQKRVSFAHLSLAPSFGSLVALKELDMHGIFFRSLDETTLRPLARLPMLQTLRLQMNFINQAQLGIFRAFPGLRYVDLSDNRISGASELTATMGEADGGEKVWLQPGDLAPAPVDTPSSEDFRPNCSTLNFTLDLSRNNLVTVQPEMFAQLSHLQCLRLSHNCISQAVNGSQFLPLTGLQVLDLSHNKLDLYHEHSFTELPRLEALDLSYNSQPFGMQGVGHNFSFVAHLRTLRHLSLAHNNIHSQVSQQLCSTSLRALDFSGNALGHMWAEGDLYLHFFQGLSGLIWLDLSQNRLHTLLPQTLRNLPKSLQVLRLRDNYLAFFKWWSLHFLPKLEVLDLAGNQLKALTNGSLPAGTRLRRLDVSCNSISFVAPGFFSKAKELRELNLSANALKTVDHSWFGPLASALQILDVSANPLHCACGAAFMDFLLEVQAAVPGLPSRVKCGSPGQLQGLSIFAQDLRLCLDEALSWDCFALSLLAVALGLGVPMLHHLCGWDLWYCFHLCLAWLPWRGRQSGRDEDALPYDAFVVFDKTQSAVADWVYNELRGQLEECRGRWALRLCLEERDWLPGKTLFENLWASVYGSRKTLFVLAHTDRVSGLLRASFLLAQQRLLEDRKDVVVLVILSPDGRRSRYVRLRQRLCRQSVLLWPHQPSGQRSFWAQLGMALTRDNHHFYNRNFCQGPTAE
The test is described as follows: TLR9 inhibition reporter assay (HEK-Blue cells, SEAP reporter, ODN2006 stimulation). The note with it: HEK-Blue cells overexpressing human TLR9, SEAP reporter, ODN2006 5 nM. As to the method: as §1, §2

The values that follow come from patent US11878975B2, “Substituted indole compounds useful as TLR inhibitors” (BRISTOL-MYERS SQUIBB COMPANY, priority 2017, dated 2024).

Where only a bound is given, the exact number is not on record here.

Take `COC1CCC(c2ccc3[nH]c(-c4cc(C)c5ncnn5c4)c(C(C)C)c3c2)CC1` (stereo not drawn) [Example 168, 6-(3-isopropyl-5-(4-methoxycyclohexyl)-1H-indol-2-yl)-8-methyl-[1,2,4]triazolo[1,5-a]pyridine]: the IC50 against human TLR7 is 15 nM; against human TLR8, 265 nM; against human TLR9, 34400 nM.
With `Cc1c(-c2[nH]c3ccc(CC4CN(CCS(C)(=O)=O)C4)cc3c2C(C)C)cn2ncnc2c1C` [Example 437], the IC50 against human TLR7 is 8 nM; at human TLR8 it was 4.2 nM; at human TLR9, 4720 nM.
Taken in the same sequence, the figures for `Cc1cc(-c2[nH]c3ccc(C4CCCN(C(=O)CN5CCOCC5)C4)cc3c2C(C)C)cc(C)n1` (stereo not drawn) [Example 197] were 2 nM, 16 nM and 44600 nM.
For `Cc1c(-c2[nH]c3ccc(C4CCC(NC5COC5)CC4)cc3c2C(C)C)cn2ncnc2c1C` (single isomer, unassigned) [Example 85], the IC50 against human TLR7 was found to be 0.35 nM; against human TLR8, 0.53 nM; against human TLR9, 2880 nM.
The corresponding values for `Cc1cc(-c2[nH]c3ccc(CC4CCCN4CC(=O)N(C)C)cc3c2C(C)C)cn2ncnc12` (stereo not drawn) [Example 426] are 2 nM, 13 nM and 11200 nM.
Taken in the same sequence, the figures for `COc1cc(-c2[nH]c3ccc(C4CCC(N5CC[C@H](N(C)C)C5)CC4)cc3c2C(C)C)cn2ncnc12` (stereo partly drawn) [Example 32] were 0.14 nM, 0.16 nM and 170 nM.
Take `Cc1cc(-c2[nH]c3ccc(C4CCC(N)CC4)cc3c2C(C)C)cn2ncnc12` (single isomer, unassigned) [Example 3]: the IC50 came to 0.15 nM on human TLR7, 1 nM against human TLR8 and 1290 nM on human TLR9.
`COc1cc(-c2[nH]c3ccc(C4CCC(NC(=O)CNC5(C)COC5)CC4)cc3c2C(C)C)cn2ncnc12` (stereo not drawn) [Example 135]: the results for the concentration for half-maximal inhibition (IC50) at human TLR7, on human TLR8 and against human TLR9 were 2 nM, 12 nM and 43800 nM, respectively.
Taken in the same sequence, the figures for `Cc1cc(-c2[nH]c3ccc(C4CN(CC(=O)N(C)C)C(C)(C)CO4)cc3c2C(C)C)cn2ncnc12` (single isomer, unassigned) [Example 379, 2-(2-(3-isopropyl-2-(8-methyl-[1,2,4]triazolo[1,5-a]pyridin-6-yl)-1H-indol-5-yl)-5,5-dimethylmorpholino)-N,N-dimethylacetamide] were 12 nM, 70 nM and 5370 nM.
For the compound `Cc1c(-c2[nH]c3ccc(C4CNCCO4)cc3c2C(C)C)cn2ncnc2c1C` (stereo not drawn) [Example 288], the figures for the IC50 at human TLR7, at human TLR8 and against human TLR9 were 0.61 nM, 0.52 nM and 3160 nM, respectively.
The corresponding values for `Cc1cc(-c2[nH]c3ccc(CCN4CCCC(F)C4)cc3c2C(C)C)cn(C)c1=O` (stereo not drawn) [Example 406] are 14 nM, 3.2 nM and 8810 nM.
The corresponding values for `Cc1c(-c2[nH]c3ccc(C4CCCN(CC(=O)N(C)C)C4)cc3c2C(C)C)cn2ncnc2c1C` (stereo not drawn) [Example 226] are 17 nM, 7.4 nM and 9770 nM.
With `Cc1c(-c2[nH]c3ccc(C4CN(CC(=O)N(C)C)C(C)(C)CO4)cc3c2C(C)C)cn2ncnc2c1C` (stereo not drawn) [Example 386], the figures for the half-maximal inhibitory concentration (IC50) against human TLR7, on human TLR8 and against human TLR9 were 34 nM, 49 nM and greater than 50000 nM, respectively.
The corresponding values for `Cc1cc(-c2[nH]c3ccc(C4CN(C(=O)CN(C)C)C4)cc3c2C(C)C)cn2ncnc12` [Example 266, 2-(dimethylamino)-1-(3-(3-isopropyl-2-(8-methyl-[1,2,4]triazolo[1,5-a]pyridin-6-yl)-1H-indol-5-yl)azetidin-1-yl)ethan-1-one] are 0.31 nM, 2.9 nM and 1450 nM.
The corresponding values for `Cc1c(-c2[nH]c3ccc(C4CNC(C)(C)CO4)cc3c2C(C)C)cn2ncnc2c1C` (stereo not drawn) [Example 371] are 0.92 nM, 1.3 nM and 15500 nM.
The corresponding values for `CCCN1CC(c2ccc3[nH]c(-c4cn5cnnc5c(C)c4C)c(C(C)C)c3c2)C1` [Example 546] are 4 nM, 5.8 nM and 3870 nM.
As to `Cc1c(-c2[nH]c3ccc(CC4CCCN4C4COC4)cc3c2C(C)C)cn2cnnc2c1C` (stereo not drawn) [Example 427], the results for the IC50 against human TLR7, at human TLR8 and against human TLR9 were 12 nM, 19 nM and 17600 nM, respectively.
